Data as given in article PMC10955071, “AGRAMP: machine learning models for predicting antimicrobial peptides against phytopathogenic bacteria” (Frontiers in Microbiology, 2024).
Read-outs that look alike come from different tables or passages of the source. Ends that are not written are not given here.

Assays:
[1] = tested on: Spiroplasma citri strain R8A2; details: for MIC: S. citri R8A2, LD8A3 medium + fetal bovine serum, phenol red, OD560, 48 h, triplicate, Resistant = ineffective; for activity against Spiroplasma citri in MIC assay (Positive/Negative, figure heading): Figures 5 and 6, positive = high activity, negative = no activity in MIC assay
Spiroplasma citri = details: cited from earlier work; for MIC concentration: S. citri, ref Béven et al. (1997); for MIC: spiroplasma MIC from literature
From the text: Table 7 Aggregation values of AMPs, predicted AMPs, and predicted NOAMPs. | column: MIC; Lab assay || Figure 6 Charge density analysis of predicted antimicrobial peptides (AMPs) tested in minimum inhibitory concentration (MIC) assays. […] The secondary structure of each AMP is indicated at the bottom of the respective graph. […] Intriguingly, the LK peptides had higher aggregation propensities (in the high 40s and 50s), while the peptides in the 1997 study had slightly positive (5.7, 1.3) and negative (−1.3) aggregation scores when input into AGGRESCAN. The positive control, Mel ...

[2] = ref Bevin1997 (Béven et al., 1997)
[3] = ref Bevin2002 (Béven et al., 2003)

For MILSVLKIFGVFRKRSRGN [I3440], the “SpiroC MIC (48hrs)” value [1] was 25 µg/mL.
In the case of “MGLGLHLLVLAAALQGAWSQPKKKRKV [P1, synthetic peptide from Béven et al., 1997]”, the MIC concentration (Spiroplasma citri) is given as 100 µM and the MIC (Spiroplasma citri; [2]) is given as 100 µM.
For “KLLKLLLKLLLKLLK [LK15_3.6, LK peptide (leucine/lysine copolymer) from Béven et al., 2003]”, the MIC (Spiroplasma citri; [3]) is listed as 6.25 µM.
For MERRRLAAKLANKLVRIGWIG [I5196], the MIC [1] was “Resistant”.
In the case of MLLQRLIFKPIRIIWHT [I3441], the “SpiroC MIC (48hrs)” value [1] is reported as 25 µg/mL.
For MITGRQKALKFIKKKVGGIQ [G196], the MIC [1] was “Resistant”.
In the case of MVSHLFCFKFIRNLRFKKIR [G19], the “MIC (48hrs) Resistant (R)” value [1] is reported as 50 µg/mL.
In the case of MLNLKLIRLLRHRFAI [G15], the “MIC (48hrs) Resistant (R)” value [1] is reported as 50 µg/mL.
With MILKRVFRMKNKKASV [G10159] the MIC [1] was “Resistant”.
For MCRRKGGLIGRAPPCRGRLAC [G9994], the MIC [1] was “Resistant”.
For MFLLRRILKKLRTIFIQ [I3435], the MIC [1] was 50 µg/mL and the “SpiroC MIC (48hrs)” value ([1]; Set1, tested at 50, 25, 12.5 μg/mL, OD560, triplicate) was 50 µg/mL.
For MMKKVIKLQKMIALGKIVKRFSLY [I4455], the “SpiroC MIC (48hrs)” value [1] was 12.5 µg/mL.
In the case of MKSIKIKIKRLNSKNKKILILIFI [I970], the “SpiroC MIC (48hrs)” value [1] is reported as 25 µg/mL.
For MIVRIAIRRFLKGKRQIVKI [G33], the “MIC (48hrs) Resistant (R)” value [1] was 25 µg/mL.
In the case of “Mellitin: positive control peptide in Béven et al., 1997”, the MIC (Spiroplasma citri; [2]) is given as 0.39 to .78 µM.
With MIDNKIGLVVKWLRSK [I3775] the MIC [1] was “Resistant”.
With MSRKLRKGKRQLKSPRFGKIVI [I2769] the MIC [1] was “Resistant”.
In the case of MLKCHLVGFVRRLIN [I2572], the “SpiroC MIC (48hrs)” value [1] is reported as 25 µg/mL.
In the case of MAQSKRYKARLVAKRIHAVKKY [G221], the “activity against Spiroplasma citri in MIC assay (Positive/Negative, figure heading)” value [1] is reported as “Negative” and the MIC [1] is reported as “Resistant”.
In the case of MLIMRKIKKKKRKNRHI [G54], the MIC [1] is reported as “Resistant”.
In the case of “MGLGLHLLLAAALQGAKKKRKV [P2, synthetic peptide from Béven et al., 1997]”, the MIC concentration (Spiroplasma citri) is listed as 100 µM and the MIC (Spiroplasma citri; [2]) is listed as 100 µM.
For “KLLKLLLKLLLKLWK [LK15_W14_3.6, LK peptide (leucine/lysine copolymer) from Béven et al., 2003]”, the MIC (Spiroplasma citri; [3]) is given as 6.25 µM.
In the case of “MGLGLHLLVLAAALQGAKKKRKV [P3, synthetic peptide from Béven et al., 1997]”, the MIC concentration (Spiroplasma citri) is given as 100 µM and the MIC (Spiroplasma citri; [2]) is given as 100 µM.
For MGFLLKTLSHIRRVIRLII [G389], the “MIC (48hrs) Resistant (R)” value [1] was 50 µg/mL.
With MILRLPHLINCTTTGLISKITSYLG [I4992] the “activity against Spiroplasma citri in MIC assay (Positive/Negative, figure heading)” value [1] was “Negative” and the MIC [1] was “Resistant”.
In the case of MARKAISKVIVGTRRKKKK [G66], the MIC [1] is reported as “Resistant”.
